Experimental data as given in patent US20130084319A1, “BROAD-SPECTRUM ANTIMICROBIAL COMPOSITIONS BASED ON COMBINATIONS OF TAUROLIDINE AND PROTAMINE AND MEDICAL DEVICES CONTAINING SUCH COMPOSITIONS” (priority 2011, published 2013).

What was measured:
[1] = system: Staphylococcus aureus ACTT 6538; assay: in vitro bacteria attachment assay on coated surgical mesh discs in SST medium; type: cell-based; details: serum containing media
Method: (§1) Taurolidine was dissolved at 4% wt./vol. in a 70% acetone 30% water vol./vol. mixture. Protamine sulfate was dissolved at 10% wt./vol. in water under warming. 50 μl of the taurolidine (TU) solution and 20 μl of the protamine (PS) solution were applied to each mesh disk using a pipette and allowed to dry at 50° C. until the majority of the liquid was gone and then stored under vacuum. First the taurolidine solution was applied, and then immediately thereafter the protamine sulfate solution was applied. The in vitro bacteria attachment assay was developed for its utility of indicating biofilm prevention potential of prototype mesh. Since bacterial attachment to a surface is the first step of biofilm formation, a surface treatment that inhibits bacterial attachment would reduce the chance of subsequent biofilm formation. The assay was conducted in SST (Serum Saline TSB) medium to mimic in vivo and clinical conditions. The formulation of SST is Tryptic Soy Broth (TSB):serum:saline in the ratio of 1:2:7. Each test article was incubated in SST inoculated with Staphylococcus aureus ACTT 6538 or Escherichia coli ATCC 25922 at about 6 Log CFU/ml. […] Viable bacteria populations were measured by plate count on TSA (Tryptic Soy agar) medium contain neutralizing agents. […]

[2] = system: Escherichia coli ATCC 25922; assay: as above; type: cell-based; details: serum containing media
Method: as §1

[3] = cited from earlier work

## O=S1(=O)CCN(CN2CCS(=O)(=O)NC2)CN1 [TU, bis(1,1-dioxoperhydro-1,2,4-thiadiazinyl-4)-methane]
[1]
  inhibition of attachment by S. aureus to treated mesh surface: less inhibition than the combination
[2]
  inhibition of attachment by E. coli to treated mesh surface: less inhibition than the combination
[3]; cumulative doses
  cumulative dose shown to be safe and well tolerated: exceeding 300 g
[3]; systemic doses
  systemic dose shown to be safe and well tolerated: exceeding 40 g/day
